According to patent US6409988B1, “Radiolabeled 1-aryl pyrazoles, the synthesis thereof and the use thereof as pest GABA receptor ligands” (3-Dimensional Pharmaceuticals, Inc., priority 1999, dated 2002):

Experiments:
[1] = Chemical stability of the radioligand; format: physicochemical; conditions: avoids periodic purification steps
Protocol: (§1) Compound 1 binds to the housefly GABA receptor with high affinity (IC50=8 nM, for displacement of 2.6 nM of ^3H-EBOB) and can be radiolabeled at high specific activity (>70 Ci/mmol). These are two highly desirable requirements for a new radioligand.

housefly GABA receptor = target: T1, housefly GABA receptor (Musca domestica, UniProt Q75NA5); assay: Displacement of 3H-EBOB from the housefly GABA receptor; format: binding
T1 sequence (Q75NA5 30-576): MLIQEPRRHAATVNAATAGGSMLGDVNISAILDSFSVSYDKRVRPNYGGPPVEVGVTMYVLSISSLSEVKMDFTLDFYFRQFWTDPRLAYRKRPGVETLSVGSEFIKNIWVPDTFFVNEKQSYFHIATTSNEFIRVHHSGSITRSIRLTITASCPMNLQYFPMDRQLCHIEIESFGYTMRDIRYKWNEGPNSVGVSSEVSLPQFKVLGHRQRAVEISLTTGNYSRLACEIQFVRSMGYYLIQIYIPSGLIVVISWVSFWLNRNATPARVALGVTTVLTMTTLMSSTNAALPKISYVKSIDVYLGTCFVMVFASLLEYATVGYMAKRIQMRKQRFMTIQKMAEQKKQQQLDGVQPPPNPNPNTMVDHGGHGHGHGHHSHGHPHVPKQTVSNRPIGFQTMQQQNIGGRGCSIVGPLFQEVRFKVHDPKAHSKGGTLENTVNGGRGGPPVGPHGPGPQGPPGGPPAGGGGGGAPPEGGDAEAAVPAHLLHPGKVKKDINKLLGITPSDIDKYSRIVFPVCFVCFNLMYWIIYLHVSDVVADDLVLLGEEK
Protocol: as §1

With `[3H]C([3H])([3H])Sc1nn(-c2c(Cl)cc(C(F)(F)F)cc2Cl)c(N)c1C#N` [Compound 1, 4-cyano-1-(2,6-dichloro-4-trifluorophenyl)-3-[^3H3]methylthiopyrazol-5-ylamine] the chemical stability [1] was “chemically stable” and the IC50 (housefly GABA receptor) was 8 nM.
